Measured values published in patent US8114843B2, “Photoreactive regulator of protein function and methods of use thereof” (The Regents of the University of California, priority 2005, dated 2012).

Columns and labels:
[1] = biological target: T1, Kv3.3 (Homo sapiens, UniProt Q14003); test: PAL photoswitching, whole-cell patch clamp in HEK cells; assay type: cell-based
T1 construct: expressed in transfected cells; host or cells: HEK cells
T1 sequence (Q14003 1-757): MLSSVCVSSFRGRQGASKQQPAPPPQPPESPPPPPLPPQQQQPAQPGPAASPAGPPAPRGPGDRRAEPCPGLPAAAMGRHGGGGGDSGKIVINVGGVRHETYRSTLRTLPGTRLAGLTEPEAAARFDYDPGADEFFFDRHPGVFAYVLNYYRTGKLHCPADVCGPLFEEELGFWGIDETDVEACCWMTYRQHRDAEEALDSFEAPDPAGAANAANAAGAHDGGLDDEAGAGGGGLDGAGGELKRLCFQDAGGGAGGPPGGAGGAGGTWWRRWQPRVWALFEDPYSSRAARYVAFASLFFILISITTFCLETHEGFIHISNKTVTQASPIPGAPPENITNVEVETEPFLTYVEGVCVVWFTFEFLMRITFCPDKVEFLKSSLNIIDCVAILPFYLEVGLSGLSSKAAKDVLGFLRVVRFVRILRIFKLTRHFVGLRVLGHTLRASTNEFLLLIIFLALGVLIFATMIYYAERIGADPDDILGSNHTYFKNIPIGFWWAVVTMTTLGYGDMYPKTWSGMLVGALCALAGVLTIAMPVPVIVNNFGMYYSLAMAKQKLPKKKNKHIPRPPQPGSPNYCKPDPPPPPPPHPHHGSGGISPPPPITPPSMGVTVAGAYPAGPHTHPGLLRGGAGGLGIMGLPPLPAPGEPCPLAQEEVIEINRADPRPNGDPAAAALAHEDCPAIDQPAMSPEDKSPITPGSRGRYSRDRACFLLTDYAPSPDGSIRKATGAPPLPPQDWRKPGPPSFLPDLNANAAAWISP
Method: (§1) Cell culture and transfection. HEK293 cells were grown in DMEM containing 5% fetal bovine serum, at 37° C., 7% CO2. For electrophysiology, cells were plated at 12×10^5 cells/cm^2 on poly-L-lysine coated coverslips and transfected using the calcium phosphate method. Recordings were performed 24-36 hours after transfection.
(§2) PAL attachment. HEK293 and hippocampal cells were rinsed in extracellular solution containing in mM: 138 NaCl, 1.5 KCl, 1.2 MgCl2, 2.5 CaCl2, 5 HEPES, 10 glucose and incubated at 37° C. in the dark with 200-250 μM PAL for 15 minutes. For slices, AAQ was diluted to 200 μM in aCSF and treatment was performed in the dark at room temperature for 10 minutes.
(§3) Electrophysiological recording. Recordings from HEK293 and hippocampal neurons were made in the whole-cell patch clamp configuration using a PC-501A amplifier (Warner Instruments). Pulse protocols and measurements were carried out with pCLAMP and a Digidata 1322 interface (Axon Instruments). For voltage-clamp experiment, cells were held at −70 mV. Data was recorded at 20 kHz and filtered at 2 kHz. Recording pipettes with 2.5-4 MΩ resistance were filled with intracellular solution containing in mM: 10 NaCl, 135 K-gluconate, 10 HEPES, 2 MgCl2, 2 MgATP, 1 EGTA, pH 7.4.
(§4) Illumination was provided using a xenon lamp (Sutter Instruments) with narrow band pass filters (380 BP10 for UV and 500 BP5 for visible light respectively). Excitation filters were changed using a lambda 10-2 filter changer (Sutter Instruments) controlled via pCLAMP software.
(§5) Percent photoswitching was defined as the difference between current in UV and visible light divided by current in UV. All data shown in bar graphs are averages±standard error of the mean.

[2] = system: voltage-gated outward current (endogenous K+ channels) in cultured hippocampal neurons; test: Photocontrol of K+ current in cultured hippocampal neurons; assay type: cell-based, rat; conditions: 200 μM, 15 min in the dark
Method: Hippocampal neurons were prepared from neonatal Sprague-Dawley rats according to standard procedures (Goslin) and grown on poly-L-lysine coated coverslips in MEM supplemented with 5% fetal bovine serum, B27 (Invitrogen), glutamine and serum extender (BD Biosciences). Animal care and experimental protocols were approved by the UC Berkeley Animal Care and Use Committee. Recordings were performed 9-16 days after plating. The Shaker construct also contains an N-terminal deletion (Δ6-46) to minimize fast inactivation.
as §2
as §3, with “Recording pipettes with 2.5-4 MΩ resistance were filled with intracellular solution containing in mM: 10 NaCl, 135 K-gluconate, 10 HEPES, 2 MgCl2, 2 MgATP, 1 EGTA, pH 7.4.” left out

[3] = system: cultured hippocampal neurons; test: Live/Dead assay after PAL treatment; assay type: cell-based; conditions: 200 μM
Description: Live/Dead assay. After PAL treatment, hippocampal neurons were processed for the live dead assay (Molecular Probes) according to the manufacturer's instructions. Cells were counted in 4-8 fields for each treatment condition.

[4] = biological target: T2, Shaker channel with engineered cysteine (E422C) (Drosophila melanogaster, UniProt P08510, DEL6-46/E422C); test: PAL photoswitching, whole-cell patch clamp in HEK293 cells; assay type: cell-based; conditions: n=6
T2 construct: expressed in transfected cells; host or cells: HEK293
T2 sequence (P08510 other isoform, or with tags, fused parts or gaps DEL6-46/E422C): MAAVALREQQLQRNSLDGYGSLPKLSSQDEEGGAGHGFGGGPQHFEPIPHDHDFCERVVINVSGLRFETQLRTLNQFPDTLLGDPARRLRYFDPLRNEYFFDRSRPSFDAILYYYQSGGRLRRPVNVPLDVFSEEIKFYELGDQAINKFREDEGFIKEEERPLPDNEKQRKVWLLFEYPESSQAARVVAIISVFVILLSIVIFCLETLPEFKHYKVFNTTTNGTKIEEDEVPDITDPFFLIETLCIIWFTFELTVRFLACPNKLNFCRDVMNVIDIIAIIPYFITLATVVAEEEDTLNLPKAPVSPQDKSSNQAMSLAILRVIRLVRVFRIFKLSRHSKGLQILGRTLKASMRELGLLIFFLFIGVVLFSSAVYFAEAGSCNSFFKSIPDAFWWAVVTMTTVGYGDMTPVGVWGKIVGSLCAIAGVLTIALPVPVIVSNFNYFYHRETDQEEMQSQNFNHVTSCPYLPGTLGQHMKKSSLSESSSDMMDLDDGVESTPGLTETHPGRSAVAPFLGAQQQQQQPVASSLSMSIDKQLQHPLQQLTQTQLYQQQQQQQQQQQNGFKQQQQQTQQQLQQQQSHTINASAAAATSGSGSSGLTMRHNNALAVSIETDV
Method: as §1, §2, §3, §4, §5

[5] = biological target: T3, wild-type Shaker (E422) (Drosophila melanogaster, UniProt P08510, DEL6-46); test: as above; assay type: cell-based; conditions: n=6
T3 construct: expressed in transfected cells; host or cells: HEK293
T3 sequence (P08510 other isoform, or with tags, fused parts or gaps DEL6-46): as the sequence (P08510 other isoform, or with tags, fused parts or gaps DEL6-46/E422C) above, with C381E counted along it
Method: as §1, §2, §3, §4, §5

[6] = system: basket cells; test: Loose-patch extracellular recording in cerebellar slices; assay type: cell-based, rat; conditions: 500 nm light; with AMPA, NMDA and GABAA receptor antagonists; n=6
Method: Brain Slice Preparation. Parasagittal cerebellar slices were prepared using standard techniques approved by the UCLA Animal Care Committee. The cerebellum was removed from the cranium of a 14-20 day old Sprague-Dawley rat, mounted on an agar support and sectioned parasagitally using a vibrotome (Leica VT-1000) while submerged in cold (<4° C.) artificial cerebrospinal fluid (aCSF) containing in mM: 119 NaCl, 26 NaHCO3, 11 glucose, 2.5 KCl, 2.5 CaCl2, 1.3 MgCl2, and 1 NaH2PO4 and saturated with 95% O2 and 5% CO2 Following sectioning, the […] slices were stored in 35° C. aCSF for 30 minutes and brought to room temperature for subsequent electrophysiological experiments.
as §2
For cerebellar slices, neuronal cell bodies were visualized using an upright microscope with a 40× water immersion lens and equipped with an infrared-DIC enhancement. Loose-patch extracellular recordings were performed using an Axopatch 200B amplifier (Axon Instruments). Electrophysiological recordings were filtered at 1 KHz and digitized at 2-4 KHz. […]

C=CC(=O)Nc1ccc(/N=N/c2ccc(NC(=O)C[N+](CC)(CC)CC)cc2)cc1 [AAQ] was tested, and the “light-sensitivity imparted on channel” value [1] was “imparted light-sensitivity”, the “percent of the outward current that could be photoswitched” value [2] was 63±8% and the death of neurons ([3]; 15 min) was ~10%. For the same compound, the loss of neurons ([3]; 60 min) was ~15%, the “fraction of current that could be photoswitched” value [4] was 39±1% and the “fraction of current that could be photoswitched” value [5] was 48±2%. The “enhancement of firing frequency” value [6] was 324±160%.
